{"source": "patent US11147853B2", "about": "“Polypeptide binding to a plurality of amyloid monomers and aggregates, and use thereof” (Hangzhou Wisdom Panacea Biologics Co., Ltd., priority 2015, dated 2021)", "key": {"[1]": {"molecular_target": "Aβ42 oligomers (Homo sapiens, UniProt P05067)", "sequence (P05067 672-713 limits assumed)": "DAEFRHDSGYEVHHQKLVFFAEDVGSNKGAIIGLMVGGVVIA", "assay": "ELISA binding of histidine-tagged ZR derivatives to Aβ42 oligomers"}, "[2]": {"test_system": "SH-SY5Y cells", "conditions": "for cell activity (MTT, relative to PBS control): Aβ42 4 μM, 48 hours, Aβ42 alone 71%", "method": "(§1) SH-SY5Y cells were prepared into a single cell suspension with a medium (DMEM) containing 10% fetal bovine serum and then inoculated into a 96-well cell culture plate at 10000 cells per well and with a volume of 100 μL per well. The cells were incubated at 37° C., 5% of CO2 concentration for 24 hours in an incubator.\nAβ42: the final concentration of Aβ42 was 4 μM; a mixture of Aβ42 and ZR (Aβ:ZR=1:0.5): the final concentration of Aβ42 protein was 4 μM and the final concentration of ZR was 2 μM; a mixture of Aβ42 and ZR (Aβ: ZR=1:1): the final concentration of Aβ42 protein was 4 μM and the final concentration of ZR was 4 μM;\n(§2) Cells were further cultured for 48 hours, then 10 μL of MTT solution was added into each well and incubated at 37° C. for 3 hours. Then the incubation was stopped by adding 100 μL dissolve solution (10% SDS and 5% iso-butanol dissolved in 0.01 M HCL) to each well, and incubated at 37° C. overnight to fully dissolve the MTT crystals. The absorbance of each well was measured on a multifunctional ELISA reader at a wavelength of 570 nm. After subtracting the background, the absorbance of the sample was divided by the absorbance of PBS control to act as an indicator of the cell activity, and the significant differences were analyzed."}, "[3]": {"test_system": "SH-SY5Y cells", "conditions": "for cell activity (MTT, relative to PBS control): amylin 4 μM, 48 hours, amylin alone 61%", "method": "as §1\nAmylin: the final concentration of amylin was 4 μM; a mixture of Amylin and ZR (Amylin:ZR=1:1): the final concentration of Amylin protein was 4 μM and the final concentration of ZR was 4 μM; a mixture of Amylin and ZR (Amylin: ZR=1:10): the final concentration of Amylin protein was 4 μM and the final concentration of ZR was 40 μM;\nas §2"}, "[4]": {"test_system": "SH-SY5Y cells", "conditions": "for cell activity (MTT, relative to PBS control): lysozyme 20 μM, 48 hours, lysozyme alone 55%", "method": "as §1\nLysozyme: the final concentration of lysozyme was 20 μM; a mixture of lysozyme and ZR (lysozyme:ZR=1:1): the final concentration of lysozyme protein was 20 μM and the final concentration of ZR was 20 μM; a mixture of lysozyme and ZR (lysozyme: ZR=1:10): the final concentration of lysozyme protein was 20 μM and the final concentration of ZR was 200 μM;\nas §2"}, "[5]": {"test_system": "SH-SY5Y cells", "conditions": "for cell activity (MTT, relative to PBS control): insulin 60 μM, 48 hours, insulin alone 77%", "method": "as §1\nInsulin: the final concentration of insulin was 60 μM; a mixture of insulin and ZR (insulin:ZR=1:1): the final concentration of insulin protein was 60 μM and the final concentration of ZR was 60 μM; a mixture of insulin and ZR (insulin: ZR=1:5): the final concentration of insulin protein was 60 μM and the final concentration of ZR was 300 μM; PBS was used as control;\nas §2"}}, "note": "Read-outs that look alike come from different tables or passages of the source. Where no end group is shown, it is not given here."}
{"substance": "AFFNNKR [sequence 7]", "values": [{"measurement": "OD450 of binding to Aβ42 oligomers", "setting": "[1]", "result": 0.22}]}
{"substance": "SFANNKR [sequence 9]", "values": [{"measurement": "OD450 of binding to Aβ42 oligomers", "setting": "[1]", "result": 0.15}]}
{"substance": "SFFNAKR [sequence 11]", "values": [{"measurement": "OD450 of binding to Aβ42 oligomers", "setting": "[1]", "result": 0.18}]}
{"substance": "SFFNNAR [sequence 12]", "values": [{"measurement": "OD450 of binding to Aβ42 oligomers", "setting": "[1]", "result": 0.14}]}
{"substance": "SFFNNKA [sequence 13]", "values": [{"measurement": "OD450 of binding to Aβ42 oligomers", "setting": "[1]", "result": 0.14}]}
{"substance": "SFFNNKR [ZR, Ser-Phe-Phe-Asn-Asn-Lys-Arg]", "values": [{"measurement": "cell activity (MTT, relative to PBS control)", "setting": "[2]; ZR 2 μM (Aβ:ZR=1:0.5)", "result": 80, "unit": "%"}, {"measurement": "cell activity (MTT, relative to PBS control)", "setting": "[2]; ZR 4 μM (Aβ:ZR=1:1)", "result": 82, "unit": "%"}, {"measurement": "inhibition of cytotoxicity induced by Aβ42", "setting": "[2]; molar ratio 1:1", "result": 37.8, "unit": "%"}, {"measurement": "cell activity (MTT, relative to PBS control)", "setting": "[3]; ZR 4 μM (Amylin:ZR=1:1)", "result": 70, "unit": "%"}, {"measurement": "cell activity (MTT, relative to PBS control)", "setting": "[3]; ZR 40 μM (Amylin:ZR=1:10)", "result": 75, "unit": "%"}, {"measurement": "inhibition of cytotoxicity induced by amylin", "setting": "[3]; molar ratio 1:10", "result": 45.4, "unit": "%"}, {"measurement": "cell activity (MTT, relative to PBS control)", "setting": "[4]; ZR 20 μM (lysozyme:ZR=1:1)", "result": 85, "unit": "%"}, {"measurement": "cell activity (MTT, relative to PBS control)", "setting": "[4]; ZR 200 μM (lysozyme:ZR=1:10)", "result": 93, "unit": "%"}, {"measurement": "inhibition of cytotoxicity induced by lysozyme", "setting": "[4]; molar ratio 1:10", "result": 117.6, "unit": "%"}, {"measurement": "cell activity (MTT, relative to PBS control)", "setting": "[5]; ZR 60 μM (insulin:ZR=1:1)", "result": 92, "unit": "%"}, {"measurement": "cell activity (MTT, relative to PBS control)", "setting": "[5]; ZR 300 μM (insulin:ZR=1:5)", "result": 102, "unit": "%"}, {"measurement": "inhibition of cytotoxicity induced by insulin", "setting": "[5]; molar ratio 1:5", "result": 89.8, "unit": "%"}]}
